Columns and labels:
[1] = Mean particle size of salmeterol xinafoate/HFA 134a suspension by image analysis (Galai CIS-100 particle size analyser); type: physicochemical; details: for Mean Length: salmeterol xinafoate in HFA 134a, 25 μg per actuation, 10% w/w (relative to drug) of surfactant compound, crimped glass bottles, equivalent diameter, average of 4 determinations; for spread of the range of particles size: salmeterol xinafoate in HFA 134a with 10% w/w surfactant compound, versus control without surfactant
Method: Salmeterol xinafoate formulations in HFA 134a, of strength 25 μg per actuation, and 10% w/w (relative to drug) of the relevant surfactant compound of formula (I) were prepared in crimped glass bottles using salmeterol xinafoate (8.7 mg), HFA 134a (18 g) and the relevant compound (0.87 mg). The control was prepared without the addition of a surfactant. […] In this measurement, particle size is represented as the equivalent diameter of a circle of equal area to the object. The mean is the average of 4 determinations. The particle size measurement was obtained by transferring the suspensions to a pressurised cell, and video-imaging the sample under shear via a microscope objective. The equivalent diameter is defined as the diameter of a circle of equal area to the object.
The mean equivalent diameter can be weighted by number, length or volume. e.g. For three particles with equivalent diameters of x, y and z:
This is seen by the marked reduction in average particle size (“mean length”) when a compound of formula (I) is incorporated into the formulation. Futhermore the spread of the range of particles size was reduced in some cases (especially Examples 5 and 7).

[2] = Emitted dose and fine particle mass by Anderson Cascade Impactor stack; type: physicochemical; details: salmeterol xinafoate in HFA 134a, 25 μg per actuation, 10% w/w surfactant compound, aluminum canisters; beginning of use; mean of two determinations
Method: Data were obtained at the beginning of use of the device. Salmeterol xinafoate formulations in HFA 134a, of strength 25 μg per actuation, and 10% w/w (relative to drug) of the relevant surfactant compound of formula (I) were prepared in standard aluminum canisters. Control 1 was prepared at the same time as samples containing examples 2, 5, 6 and 7 whereas control 2 was prepared separately. The analysis of aerosol formulations using such stacks is well known to person skilled in the art. The results are presented as the mean of two determinations.
These samples also show an increase in the absolute value of the FPM fraction in most cases.

Structure (SMILES)	Mean Length [1]	% FPM [2]	FPM (fine particle mass, sum of stages 3 to 5) [2]	Total Dose Emitted [2]	Total Emitted Ex-Device [2]	spread of the range of particles size [1]
COCCOCCOCCOCCOCCOCCOCC(=O)O [Example 2, 2,5,8,11,14,17,20-Heptaoxadocosan-22-oic acid]	27.1 μm	38.8%	8.7 µg	22.4 µg	18.8 µg	
O=C(O)COCCOCCOCCOCCOCCOCCOCC(F)(F)F [Example 5, 23,23,23-Trifluoro-3,6,9,12,15,18,21-heptaoxatricosan-1-oic acid]	23.8 μm	37.2%	8.6 µg	23.0 µg	19.4 µg	reduced
O=C(O)COCCOCCOCC(F)(F)F [Example 6, {[2-({2-[(2,2,2-Trifluoroethyl)oxy]ethyl}oxy)ethyl]oxy}acetic acid]	23.7 μm	33.2%	7.1 µg	21.4 µg	17.9 µg	
COCCOCCOCCOCCOCCOCCOCCOCCOCCOCC(=O)O [Example 7, 2,5,8,11,14,17,20,23,26,29-Decaoxahentriacontan-31-oic acid]	28.6 μm	38.7%	8.5 µg	21.9 µg	18.4 µg	reduced

— US7217409B2, “Alkanoic acid derivatives” (SmithKline Beecham Corporation, priority 2000, dated 2007)
